Consider seven compounds from US9249129B2, “Morpholino substituted urea derivatives as mTOR inhibitors” (CELLZOME LIMITED, priority 2010, dated 2016).

SMILES strings stand for the structures.

Holding throughout (assay): kinobeads assay with mass spectrometry detection of kinases (kinase selectivity profile)
Common to all, as to assay type: binding

For experiment [1], the target named is T1, kinases (kinome) (Homo sapiens, UniProt P51617).
T1 construct: determined in kinobeads assays with mass spectrometry detection of kinases as described previously; endogenous in cells; host or cells: cell lysate
The following applies: IRAK1 (TKL), IPI00293652. An excerpt:
(§1) The protein kinase complement of the human genome (the kinome) was described previously (Manning et al., 2002. Science 298(5600):1912-1934). Sequence accession numbers are defined by the International Protein Index (IPI) (Kersey et al., 2004. Proteomics 4(7):1985-1988).

Experiment [2] has as its target T2, kinases (kinome) (Homo sapiens, UniProt P36507).
T2 construct: determined in kinobeads assays with mass spectrometry detection of kinases as described previously; endogenous in cells; host or cells: cell lysate
The following applies: MAP2K2 (STE), IPI00003783.
Excerpt: as §1

Experiment [3] deals with T3, kinases (kinome) (Homo sapiens, UniProt P36894).
T3 construct: determined in kinobeads assays with mass spectrometry detection of kinases as described previously; endogenous in cells; host or cells: cell lysate
The note with it: BMPR1A (TKL), IPI00005731.
Excerpt: as §1

Experiment [4] addresses T4, kinases (kinome) (Homo sapiens, UniProt Q13535).
T4 construct: determined in kinobeads assays with mass spectrometry detection of kinases as described previously; endogenous in cells; host or cells: cell lysate
The following applies: ATR (Atypical), IPI00412298; 0.1 μM ranges.
Excerpt: as §1

The target of experiment [5] is T5, kinases (kinome) (Homo sapiens, UniProt P29320).
T5 construct: determined in kinobeads assays with mass spectrometry detection of kinases as described previously; endogenous in cells; host or cells: cell lysate
T5 sequence (P29320 21-983): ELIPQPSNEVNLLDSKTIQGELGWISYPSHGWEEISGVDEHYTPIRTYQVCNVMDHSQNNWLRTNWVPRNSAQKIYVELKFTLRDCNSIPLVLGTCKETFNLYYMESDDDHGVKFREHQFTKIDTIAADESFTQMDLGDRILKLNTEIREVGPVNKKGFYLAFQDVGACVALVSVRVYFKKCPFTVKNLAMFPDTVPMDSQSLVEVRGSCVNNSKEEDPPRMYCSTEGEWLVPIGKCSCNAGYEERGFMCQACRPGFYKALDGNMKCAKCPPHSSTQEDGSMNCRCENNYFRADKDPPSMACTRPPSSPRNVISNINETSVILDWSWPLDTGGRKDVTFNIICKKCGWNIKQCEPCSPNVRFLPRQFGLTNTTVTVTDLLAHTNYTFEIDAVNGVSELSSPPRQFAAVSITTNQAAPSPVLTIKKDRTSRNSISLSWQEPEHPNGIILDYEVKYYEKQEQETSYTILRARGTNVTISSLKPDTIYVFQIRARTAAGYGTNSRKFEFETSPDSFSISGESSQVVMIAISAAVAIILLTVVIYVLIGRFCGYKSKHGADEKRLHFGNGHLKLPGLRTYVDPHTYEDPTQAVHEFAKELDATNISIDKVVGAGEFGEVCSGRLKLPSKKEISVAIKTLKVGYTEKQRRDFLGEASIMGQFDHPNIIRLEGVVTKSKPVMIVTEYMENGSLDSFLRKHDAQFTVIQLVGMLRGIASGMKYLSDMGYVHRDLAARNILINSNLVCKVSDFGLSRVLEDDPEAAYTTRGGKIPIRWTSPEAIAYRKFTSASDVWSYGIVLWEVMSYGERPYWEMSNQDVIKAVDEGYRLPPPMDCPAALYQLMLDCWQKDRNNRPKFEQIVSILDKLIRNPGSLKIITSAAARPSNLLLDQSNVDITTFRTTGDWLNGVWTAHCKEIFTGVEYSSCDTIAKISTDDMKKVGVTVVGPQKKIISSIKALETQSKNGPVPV
The note with it: EphA3 (TK), IPI00298105.
Excerpt: as §1

Experiment [6] has as its target T6, kinases (kinome) (Homo sapiens, UniProt O75676).
T6 construct: determined in kinobeads assays with mass spectrometry detection of kinases as described previously; endogenous in cells; host or cells: cell lysate
The following applies: MSK2 (AGC), IPI00022536.
Excerpt: as §1

The target of experiment [7] is T7, kinases (kinome) (Homo sapiens, UniProt P49759).
T7 construct: determined in kinobeads assays with mass spectrometry detection of kinases as described previously; endogenous in cells; host or cells: cell lysate
The following applies: CLK1 (CMGC), IPI00915761.
Excerpt: as §1

For experiment [8], the target named is T8, kinases (kinome) (Homo sapiens, UniProt Q05655).
T8 construct: determined in kinobeads assays with mass spectrometry detection of kinases as described previously; endogenous in cells; host or cells: cell lysate
The note with it: PKCd (AGC), IPI00329236.
Excerpt: as §1

Experiment [9] concerns the target T9, kinases (kinome) (Homo sapiens, UniProt P10721).
T9 construct: determined in kinobeads assays with mass spectrometry detection of kinases as described previously; endogenous in cells; host or cells: cell lysate
The note with it: KIT (TK), IPI00022296.
Excerpt: as §1

Experiment [10] deals with T10, kinases (kinome) (Homo sapiens, UniProt O75716).
T10 construct: determined in kinobeads assays with mass spectrometry detection of kinases as described previously; endogenous in cells; host or cells: cell lysate
The note with it: MPSK1 (Other), IPI00915837.
Excerpt: as §1

Experiment [11] has as its target T11, kinases (kinome) (Homo sapiens, UniProt P00519).
T11 construct: determined in kinobeads assays with mass spectrometry detection of kinases as described previously; endogenous in cells; host or cells: cell lysate
The following applies: ABL (TK), IPI00221171.
Excerpt: as §1

For experiment [12], the target named is T12, kinases (kinome) (Homo sapiens, UniProt Q13418).
T12 construct: determined in kinobeads assays with mass spectrometry detection of kinases as described previously; endogenous in cells; host or cells: cell lysate
T12 sequence (Q13418 1-452): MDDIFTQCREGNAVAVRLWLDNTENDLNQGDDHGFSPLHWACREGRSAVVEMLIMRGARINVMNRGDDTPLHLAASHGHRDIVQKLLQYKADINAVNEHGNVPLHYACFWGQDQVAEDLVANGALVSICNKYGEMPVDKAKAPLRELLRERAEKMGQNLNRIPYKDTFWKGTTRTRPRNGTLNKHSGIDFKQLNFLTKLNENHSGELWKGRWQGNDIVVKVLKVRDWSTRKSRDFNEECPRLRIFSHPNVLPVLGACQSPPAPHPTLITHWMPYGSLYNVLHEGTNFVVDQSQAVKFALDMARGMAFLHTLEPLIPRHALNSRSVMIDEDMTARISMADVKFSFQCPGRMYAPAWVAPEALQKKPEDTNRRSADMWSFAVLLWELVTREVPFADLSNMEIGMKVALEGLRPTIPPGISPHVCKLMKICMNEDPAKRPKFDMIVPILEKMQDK
The note with it: ILK (TKL), IPI00013219.
Excerpt: as §1

The target of experiment [13] is T13, kinases (kinome) (Homo sapiens, UniProt Q15131).
T13 construct: determined in kinobeads assays with mass spectrometry detection of kinases as described previously; endogenous in cells; host or cells: cell lysate
The following applies: CDK10 (CMGC), IPI00014873.
Excerpt: as §1

T4 sequence (Q13535 whole entry): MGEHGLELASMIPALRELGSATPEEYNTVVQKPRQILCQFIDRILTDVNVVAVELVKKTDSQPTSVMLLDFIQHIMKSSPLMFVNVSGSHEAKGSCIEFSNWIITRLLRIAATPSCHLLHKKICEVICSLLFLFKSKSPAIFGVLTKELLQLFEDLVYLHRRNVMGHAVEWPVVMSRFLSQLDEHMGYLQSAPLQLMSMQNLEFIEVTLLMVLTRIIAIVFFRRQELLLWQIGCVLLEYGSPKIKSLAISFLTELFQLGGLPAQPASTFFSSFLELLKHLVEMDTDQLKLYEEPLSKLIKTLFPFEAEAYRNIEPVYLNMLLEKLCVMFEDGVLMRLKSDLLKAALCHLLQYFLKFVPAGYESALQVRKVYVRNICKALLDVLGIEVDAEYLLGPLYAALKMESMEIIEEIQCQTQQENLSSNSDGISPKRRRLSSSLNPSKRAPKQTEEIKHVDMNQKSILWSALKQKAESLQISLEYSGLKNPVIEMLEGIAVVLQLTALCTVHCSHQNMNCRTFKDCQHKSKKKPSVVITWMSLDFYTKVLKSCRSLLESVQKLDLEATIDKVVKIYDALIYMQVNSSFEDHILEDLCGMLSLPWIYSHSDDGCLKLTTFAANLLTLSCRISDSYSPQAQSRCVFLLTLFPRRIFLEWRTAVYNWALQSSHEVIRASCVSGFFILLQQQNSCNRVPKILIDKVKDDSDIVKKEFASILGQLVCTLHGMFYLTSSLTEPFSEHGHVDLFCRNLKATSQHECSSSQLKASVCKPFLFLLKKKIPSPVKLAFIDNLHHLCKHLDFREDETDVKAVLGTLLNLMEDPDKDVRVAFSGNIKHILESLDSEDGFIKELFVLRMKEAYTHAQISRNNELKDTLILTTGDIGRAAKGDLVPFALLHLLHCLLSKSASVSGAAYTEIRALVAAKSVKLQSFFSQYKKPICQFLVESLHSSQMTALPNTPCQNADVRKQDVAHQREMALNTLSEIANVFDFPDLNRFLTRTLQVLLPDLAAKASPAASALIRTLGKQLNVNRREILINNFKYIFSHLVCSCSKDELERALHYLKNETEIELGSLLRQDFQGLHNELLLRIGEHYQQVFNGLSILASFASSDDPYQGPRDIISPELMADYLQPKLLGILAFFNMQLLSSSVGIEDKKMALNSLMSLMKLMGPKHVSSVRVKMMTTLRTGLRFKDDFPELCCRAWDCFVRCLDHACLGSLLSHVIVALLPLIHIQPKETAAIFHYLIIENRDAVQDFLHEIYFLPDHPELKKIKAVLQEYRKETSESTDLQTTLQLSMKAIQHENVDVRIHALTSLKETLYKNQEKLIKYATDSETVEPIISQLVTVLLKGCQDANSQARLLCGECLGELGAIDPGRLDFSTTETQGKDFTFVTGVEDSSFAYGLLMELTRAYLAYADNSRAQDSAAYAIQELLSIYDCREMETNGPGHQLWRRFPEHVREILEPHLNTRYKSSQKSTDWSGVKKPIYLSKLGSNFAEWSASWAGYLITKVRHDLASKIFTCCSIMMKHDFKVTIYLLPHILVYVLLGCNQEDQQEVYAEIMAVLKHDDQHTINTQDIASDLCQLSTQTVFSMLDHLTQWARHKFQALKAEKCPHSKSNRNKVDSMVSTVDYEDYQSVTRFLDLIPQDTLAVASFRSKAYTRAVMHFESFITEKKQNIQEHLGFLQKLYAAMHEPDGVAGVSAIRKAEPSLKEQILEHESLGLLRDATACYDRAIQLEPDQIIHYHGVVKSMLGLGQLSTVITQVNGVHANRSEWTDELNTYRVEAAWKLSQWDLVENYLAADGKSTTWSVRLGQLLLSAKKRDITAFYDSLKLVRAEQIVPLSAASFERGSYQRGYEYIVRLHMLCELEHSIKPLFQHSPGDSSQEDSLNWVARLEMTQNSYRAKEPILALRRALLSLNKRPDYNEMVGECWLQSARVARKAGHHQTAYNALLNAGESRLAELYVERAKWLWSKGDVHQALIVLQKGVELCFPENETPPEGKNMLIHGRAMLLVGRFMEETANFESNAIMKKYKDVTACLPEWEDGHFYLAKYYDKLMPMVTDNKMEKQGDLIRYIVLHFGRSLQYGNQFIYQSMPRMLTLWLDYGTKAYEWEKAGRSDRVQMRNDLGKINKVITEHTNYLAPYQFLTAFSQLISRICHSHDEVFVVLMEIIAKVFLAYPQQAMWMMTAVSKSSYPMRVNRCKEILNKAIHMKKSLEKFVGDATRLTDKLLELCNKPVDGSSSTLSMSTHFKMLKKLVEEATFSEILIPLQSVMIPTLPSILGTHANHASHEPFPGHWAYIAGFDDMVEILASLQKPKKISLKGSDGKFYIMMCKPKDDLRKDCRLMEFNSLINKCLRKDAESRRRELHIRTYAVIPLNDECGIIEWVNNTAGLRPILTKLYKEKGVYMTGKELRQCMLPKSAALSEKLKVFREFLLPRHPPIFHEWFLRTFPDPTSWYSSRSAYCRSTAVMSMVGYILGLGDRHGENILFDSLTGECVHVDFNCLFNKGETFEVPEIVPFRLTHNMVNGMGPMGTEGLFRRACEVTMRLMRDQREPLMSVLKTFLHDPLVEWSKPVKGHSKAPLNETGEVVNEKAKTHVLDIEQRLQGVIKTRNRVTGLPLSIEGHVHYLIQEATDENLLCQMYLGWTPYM
T7 sequence (P49759 whole entry): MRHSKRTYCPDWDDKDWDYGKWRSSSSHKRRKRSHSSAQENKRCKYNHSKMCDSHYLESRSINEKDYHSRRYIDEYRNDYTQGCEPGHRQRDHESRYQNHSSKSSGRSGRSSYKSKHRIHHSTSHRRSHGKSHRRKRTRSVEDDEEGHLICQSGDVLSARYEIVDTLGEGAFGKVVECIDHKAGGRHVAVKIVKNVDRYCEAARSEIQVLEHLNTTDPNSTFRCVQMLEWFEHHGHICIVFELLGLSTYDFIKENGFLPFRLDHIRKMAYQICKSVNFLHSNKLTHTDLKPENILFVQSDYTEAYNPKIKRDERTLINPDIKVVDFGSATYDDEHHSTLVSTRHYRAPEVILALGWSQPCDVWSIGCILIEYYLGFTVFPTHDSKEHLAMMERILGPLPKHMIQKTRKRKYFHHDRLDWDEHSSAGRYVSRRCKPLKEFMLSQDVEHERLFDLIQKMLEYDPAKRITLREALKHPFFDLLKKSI
T10 sequence (O75716 whole entry): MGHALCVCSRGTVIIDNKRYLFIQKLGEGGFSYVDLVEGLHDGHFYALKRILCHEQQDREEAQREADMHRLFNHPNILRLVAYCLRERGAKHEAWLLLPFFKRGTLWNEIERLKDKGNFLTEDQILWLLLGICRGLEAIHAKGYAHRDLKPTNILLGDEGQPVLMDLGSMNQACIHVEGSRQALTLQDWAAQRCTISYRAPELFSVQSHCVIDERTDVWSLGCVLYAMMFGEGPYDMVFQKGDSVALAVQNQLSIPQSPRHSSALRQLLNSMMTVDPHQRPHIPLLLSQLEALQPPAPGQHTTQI
T8 sequence (Q05655 whole entry): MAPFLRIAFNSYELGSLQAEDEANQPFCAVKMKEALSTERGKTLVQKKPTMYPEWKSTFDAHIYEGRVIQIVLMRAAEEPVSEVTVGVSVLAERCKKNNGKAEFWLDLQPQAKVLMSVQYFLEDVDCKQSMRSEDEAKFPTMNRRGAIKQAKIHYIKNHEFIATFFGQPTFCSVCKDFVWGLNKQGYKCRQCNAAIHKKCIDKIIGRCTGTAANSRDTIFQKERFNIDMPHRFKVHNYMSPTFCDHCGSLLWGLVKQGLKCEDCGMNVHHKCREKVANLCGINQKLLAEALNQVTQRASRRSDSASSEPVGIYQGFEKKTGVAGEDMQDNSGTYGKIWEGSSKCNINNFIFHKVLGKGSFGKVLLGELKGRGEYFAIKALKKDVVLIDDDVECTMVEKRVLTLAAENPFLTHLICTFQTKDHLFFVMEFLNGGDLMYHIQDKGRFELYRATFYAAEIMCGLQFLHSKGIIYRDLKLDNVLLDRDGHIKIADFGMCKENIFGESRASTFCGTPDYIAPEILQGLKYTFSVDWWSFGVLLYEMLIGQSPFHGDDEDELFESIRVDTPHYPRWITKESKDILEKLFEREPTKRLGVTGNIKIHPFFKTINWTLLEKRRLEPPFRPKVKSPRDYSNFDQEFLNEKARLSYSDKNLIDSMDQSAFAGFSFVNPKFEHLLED
T1 sequence (P51617 whole entry): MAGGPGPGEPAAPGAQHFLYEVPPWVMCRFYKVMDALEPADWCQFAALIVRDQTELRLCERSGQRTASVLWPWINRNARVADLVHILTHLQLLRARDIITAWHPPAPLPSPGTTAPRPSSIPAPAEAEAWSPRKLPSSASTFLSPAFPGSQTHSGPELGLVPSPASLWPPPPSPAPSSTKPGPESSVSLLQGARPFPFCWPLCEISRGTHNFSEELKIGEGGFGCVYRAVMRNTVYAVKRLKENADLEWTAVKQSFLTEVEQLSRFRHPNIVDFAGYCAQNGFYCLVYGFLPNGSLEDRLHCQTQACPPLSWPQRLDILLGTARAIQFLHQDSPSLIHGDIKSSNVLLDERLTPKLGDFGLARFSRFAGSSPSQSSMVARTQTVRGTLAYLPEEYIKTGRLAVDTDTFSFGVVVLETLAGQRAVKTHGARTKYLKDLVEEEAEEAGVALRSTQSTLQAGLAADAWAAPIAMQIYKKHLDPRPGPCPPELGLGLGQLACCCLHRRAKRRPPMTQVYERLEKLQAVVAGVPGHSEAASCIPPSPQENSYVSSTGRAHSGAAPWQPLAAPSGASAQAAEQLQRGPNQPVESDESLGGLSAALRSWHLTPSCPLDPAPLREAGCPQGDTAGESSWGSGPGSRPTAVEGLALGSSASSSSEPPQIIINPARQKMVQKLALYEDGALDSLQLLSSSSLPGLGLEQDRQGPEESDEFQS

Regarding `C[C@H]1COCCN1c1nc(-c2ccc(NC(=O)NC3CC3)cc2)cc(-c2cccnc2S(C)(=O)=O)n1` [Example 46, (S)-1-cyclopropyl-3-(4-(2-(3-methylmorpholino)-6-(2-(methylsulfonyl)pyridin-3-yl)pyrimidin-4-yl)phenyl)urea], the concentration for half-maximal inhibition (IC50) against kinases (kinome) [1], against kinases (kinome) [2], at kinases (kinome) [3], at kinases (kinome) [4], on kinases (kinome) [5] and against kinases (kinome) [6] was more than 10 µM throughout. Further, the IC50 at kinases (kinome) [7], against kinases (kinome) [8] and against kinases (kinome) [9] was more than 10 µM in each case.
With `C[C@H]1COCCN1c1nc(-c2ccc(NC(=O)NC3CC3)cc2)cc(-c2ccccc2S(C)(=O)=O)n1` [Example 4, (S)-1-cyclopropyl-3-(4-(2-(3-methylmorpholino)-6-(2-(methylsulfonyl)phenyl)pyrimidin-4-yl)phenyl)urea], the IC50 against kinases (kinome) [10], on kinases (kinome) [1], on kinases (kinome) [2], against kinases (kinome) [4], at kinases (kinome) [5] and against kinases (kinome) [11] was more than 10 µM in each case. The IC50 on kinases (kinome) [12], on kinases (kinome) [8] and on kinases (kinome) [13] was more than 10 µM each time.
As to `C[C@H]1COCCN1c1nc(-c2ccc(NC(=O)N[C@H]3CCC[C@@H]3O)cc2)cc(-c2cc(F)ccc2S(C)(=O)=O)n1` [Example 76, 1-(4-(6-(5-fluoro-2-(methylsulfonyl)phenyl)-2-((S)-3-methylmorpholino)pyrimidin-4-yl)phenyl)-3-((1S,2S)-2-hydroxycyclopentyl)urea], the IC50 against kinases (kinome) [10], against kinases (kinome) [1], at kinases (kinome) [2], against kinases (kinome) [3], on kinases (kinome) [4] and at kinases (kinome) [11] was more than 10 µM in each case. For the same compound, the IC50 on kinases (kinome) [12] and against kinases (kinome) [8] was more than 10 µM in each case.
For the compound `CCNC(=O)Nc1ccc(-c2cc(-c3ccccc3C#N)nc(N3CCOC[C@@H]3C)n2)cc1` [Example 8, (S)-1-(4-(6-(2-cyanophenyl)-2-(3-methylmorpholino)pyrimidin-4-yl)phenyl)-3-ethylurea], the IC50 against kinases (kinome) [3], against kinases (kinome) [5], against kinases (kinome) [12] and against kinases (kinome) [7] was more than 10 µM each time.
For the compound `C[C@H]1COCCN1c1cc(-c2ccccc2S(C)(=O)=O)nc(-c2ccc(NC(=O)NC3CC3)cc2)n1` [Example 6, (S)-1-cyclopropyl-3-(4-(4-(3-methylmorpholino)-6-(2-(methylsulfonyl)phenyl)pyrimidin-2-yl)phenyl)urea], the IC50 at kinases (kinome) [10] and against kinases (kinome) [3] was more than 10 µM in each case.
For the compound `C[C@H]1COCCN1c1cc(-c2ccccn2)nc(-c2ccc(NC(=O)NCCO)cc2)n1` [Example 43, (S)-1-(2-hydroxyethyl)-3-(4-(4-(3-methylmorpholino)-6-(pyridin-2-yl)pyrimidin-2-yl)phenyl)urea], the IC50 against kinases (kinome) [1], against kinases (kinome) [2], at kinases (kinome) [4], at kinases (kinome) [5], against kinases (kinome) [6] and against kinases (kinome) [12] was more than 10 µM throughout. Besides, the IC50 against kinases (kinome) [7], at kinases (kinome) [8], against kinases (kinome) [13] and at kinases (kinome) [9] was more than 10 µM throughout.
`C[C@H]1COCCN1c1nc(-c2ccc(NC(=O)NC3CC3)cc2)cc(-c2cc(F)ccc2S(C)(=O)=O)n1` [Example 40, (S)-1-cyclopropyl-3-(4-(6-(5-fluoro-2-(methylsulfonyl)phenyl)-2-(3-methylmorpholino)pyrimidin-4-yl)phenyl)urea]: the IC50 at kinases (kinome) [1] was more than 10 µM; against kinases (kinome) [2], more than 10 µM; against kinases (kinome) [3] it was more than 10 µM; against kinases (kinome) [4], 1.1 to 1.2 µM; on kinases (kinome) [5] it was more than 10 µM; on kinases (kinome) [6], more than 10 µM. Moreover, the IC50 on kinases (kinome) [11], on kinases (kinome) [12], at kinases (kinome) [7], at kinases (kinome) [8], at kinases (kinome) [13] and against kinases (kinome) [9] was more than 10 µM in each case.
